Reference: patent US10385048B2, “Pesticidally active polycyclic derivatives with sulfur containing substituents” (Syngenta Participations AG, priority 2014, dated 2019)

Columns and labels:
Type in all cases: in vivo
Bemisia tabaci = Bemisia tabaci (cotton white fly) feeding/contact activity, cotton leaf discs; settings: foliar, 144 h, application rate 200 ppm, adult white flies, 6 days after incubation
Protocol: Example B1: Bemisia tabaci (Cotton White Fly): Feeding/Contact Activity
Cotton leaf discs were placed on agar in 24-well microtiter plates and sprayed with aqueous test solutions prepared from 10′000 ppm DMSO stock solutions. After drying the leaf discs were infested with adult white flies. The samples were checked for mortality 6 days after incubation.

Diabrotica Balteata = assay: Diabrotica balteata (corn root worm), maize sprouts, L2 larvae; settings: 96 h, application rate 200 ppm, 4 days after infestation, read-out: effect in at least one of the two categories (mortality or growth inhibition)
Protocol: Example B2: Diabrotica Balteata (Corn Root Worm)
Maize sprouts placed onto an agar layer in 24-well microtiter plates were treated with aqueous test solutions prepared from 10′000 ppm DMSO stock solutions by spraying. After drying, the plates were infested with L2 larvae (6 to 10 per well). The samples were assessed for mortality and growth inhibition in comparison to untreated samples 4 days after infestation.

Euschistus heros = Euschistus heros (neotropical brown stink bug), soybean leaves, N2 nymphs; settings: 120 h, application rate 200 ppm, 5 days after infestation, read-out: effect in at least one of the two categories (mortality or growth inhibition)
Protocol: Example B3: Euschistus heros (Neotropical Brown Stink Bug)
Soybean leaves on agar in 24-well microtiter plates were sprayed with aqueous test solutions prepared from 10′000 ppm DMSO stock solutions. After drying the leaves were infested with N2 nymphs. The samples were assessed for mortality and growth inhibition in comparison to untreated samples 5 days after infestation.

[1] = test system: Frankliniella occidentalis; assay: Frankliniella occidentalis (western flower thrips) feeding/contact activity, sunflower leaf discs; settings: foliar, 168 h, application rate 200 ppm, population of mixed ages, 7 days after infestation
Protocol: Example B4: Frankliniella occidentalis (Western Flower Thrips): Feeding/Contact Activity
(§1) Sunflower leaf discs were placed on agar in 24-well microtiter plates and sprayed with aqueous test solutions prepared from 10′000 DMSO stock solutions. After drying the leaf discs were infested with a Frankliniella population of mixed ages. The samples were assessed for mortality 7 days after infestation.

Myzus persicae [2] = assay: Myzus persicae (green peach aphid) feeding/contact activity, sunflower leaf discs; settings: foliar, 144 h, application rate 200 ppm, 6 days after infestation
Protocol: Example B5: Myzus persicae (Green Peach Aphid): Feeding/Contact Activity
Sunflower leaf discs were placed onto agar in a 24-well microtiter plate and sprayed with aqueous test solutions prepared from 10′000 ppm DMSO stock solutions. After drying, the leaf discs were infested with an aphid population of mixed ages. The samples were assessed for mortality 6 days after infestation.

Myzus persicae [3] = assay: Myzus persicae (green peach aphid) systemic activity, pea seedling roots; settings: 144 h, test rate 24 ppm, 6 days after placing seedlings into test solutions
Plutella xylostella = Plutella xylostella (diamond back moth), artificial diet, L2 larvae; settings: 120 h, application rate 200 ppm, 5 days after infestation, read-out: effect in at least one of the two categories (mortality or growth inhibition)
Protocol: Example B7: Plutella xylostella (Diamond Back Moth)
24-well microtiter plates with artificial diet were treated with aqueous test solutions prepared from 10′000 ppm DMSO stock solutions by pipetting. After drying, the plates were infested with L2 larvae (10 to 15 per well). The samples were assessed for mortality and growth inhibition in comparison to untreated samples 5 days after infestation.

Spodoptera littoralis [4] = assay: Spodoptera littoralis (Egyptian cotton leaf worm), cotton leaf discs, L1 larvae; settings: foliar, 72 h, application rate 200 ppm, L1 larvae on cotton leaf discs, 3 days after infestation
Protocol: Example B8: Spodoptera littoralis (Egyptian Cotton Leaf Worm)
Cotton leaf discs were placed onto agar in 24-well microtiter plates and sprayed with aqueous test solutions prepared from 10′000 ppm DMSO stock solutions. After drying the leaf discs were infested with five L1 larvae. The samples were assessed for mortality, anti-feeding effect, and growth inhibition in comparison to untreated samples 3 days after infestation. Control of Spodoptera littoralis by a test sample is given when at least one of the categories mortality, anti-feedant effect, and growth inhibition is higher than the untreated sample.

Spodoptera littoralis [5] = assay: Spodoptera littoralis (Egyptian cotton leaf worm), uptake by lettuce roots from agar, eggs; settings: 144 h, test rate 12.5 ppm, lettuce root uptake, 6 days after infestation, read-out: effect in at least one of the three categories (mortality, anti-feeding, or growth inhibition)
Source text: Example B9: Spodoptera littoralis (Egyptian Cotton Leaf Worm)
Test compounds were applied by pipette from 10′000 ppm DMSO stock solutions into 24-well plates and mixed with agar. Lettuce seeds were placed onto the agar and the multi well plate was closed by another plate which contained also agar. After 7 days the compound was absorbed by the roots and the lettuce grew into the lid plate. The lettuce leaves were then cut off into the lid plate. Spodoptera eggs were pipetted through a plastic stencil onto a humid gel blotting paper and the lid plate was closed with it. The samples were assessed for mortality, anti-feedant effect and growth inhibition in comparison to untreated samples 6 days after infestation.

Tetranychus urticae = Tetranychus urticae (two-spotted spider mite) feeding/contact activity, bean leaf discs; settings: foliar, 192 h, application rate 200 ppm, mixed population (mobile stages), 8 days after infestation
Protocol: Example B10: Tetranychus urticae (Two-Spotted Spider Mite): Feeding/Contact Activity
Bean leaf discs on agar in 24-well microtiter plates were sprayed with aqueous test solutions prepared from 10′000 ppm DMSO stock solutions. After drying the leaf discs were infested with a mite population of mixed ages. The samples were assessed for mortality on mixed population (mobile stages) 8 days after infestation.

Thrips tabaci = Thrips tabaci (onion thrips) feeding/contact activity, sunflower leaf discs; settings: foliar, 144 h, application rate 200 ppm, population of mixed ages, 6 days after infestation
Protocol: Example B11: Thrips tabaci (Onion Thrips) Feeding/Contact Activity
as §1, with “10′000 ppm” for “10′000”, “thrips” for “Frankliniella”, “6” for “7”

Aedes aegypti = Aedes aegypti (yellow fever mosquito), dry deposit in 12 well plates, adult females; settings: application rate 200 ppm in ethanol, after 48 h and/or 24 h
Protocol: Example B12: Aedes aegypti (Yellow Fever Mosquito)
(§2) Test solutions, at an application rate of 200 ppm in ethanol, were applied to 12 well tissue culture plates. Once the deposits were dry, five, two to five day old adult female Aedes aegypti were added to each well, and sustained with a 10% sucrose solution in a cotton wool plug. Assessment of knockdown was made one hour after introduction, and mortality was assessed at 24 and 48 hours after introduction.

Anopheles stephensi = Anopheles stephensi (Indian malaria mosquito), dry deposit in 12 well plates, adult females; settings: application rate 200 ppm in ethanol, after 48 h and/or 24 h
Protocol: Example B13: Anopheles stephensi (Indian Malaria Mosquito)
as §2, with “Anopheles stephensi” for “Aedes aegypti”

CCS(=O)(=O)c1cc(C(F)(F)F)cnc1-c1nc2cc(S(=O)(=O)C(F)(F)F)ncc2n1C [Compound P8, 2-[3-ethylsulfonyl-5-(trifluoromethyl)-2-pyridyl]-3-methyl-6-(trifluoromethylsulfonyl) imidazo[4,5-c]pyridine]
≥ 80%: mortality at 200 ppm (Bemisia tabaci) | percent effect (mortality or growth inhibition) at 200 ppm (Diabrotica Balteata) | percent effect (mortality or growth inhibition) at 200 ppm (Euschistus heros) | mortality at 200 ppm [1] | mortality at 200 ppm (Myzus persicae [2]) | mortality at 24 ppm (Myzus persicae [3]) | percent effect (mortality or growth inhibition) at 200 ppm (Plutella xylostella) | percent control (mortality, anti-feedant effect or growth inhibition) at 200 ppm (Spodoptera littoralis [4]) | percent effect (mortality, anti-feeding or growth inhibition) at 12.5 ppm (Spodoptera littoralis [5]) | mortality at 200 ppm (Tetranychus urticae) | mortality at 200 ppm (Thrips tabaci) | pest or weed control at 200 ppm (Aedes aegypti) | pest or weed control at 200 ppm (Anopheles stephensi)

CCS(=O)(=O)c1cc(C(F)(F)F)cnc1-c1nc2cc([S+]([O-])C(F)(F)F)ncc2n1C (stereo not shown) [Compound P9, 2-[3-ethylsulfonyl-5-(trifluoromethyl)-2-pyridyl]-3-methyl-6-(trifluoromethylsulfinyl) imidazo[4,5-c]pyridine]
≥ 80%: mortality at 200 ppm (Bemisia tabaci) | percent effect (mortality or growth inhibition) at 200 ppm (Diabrotica Balteata) | percent effect (mortality or growth inhibition) at 200 ppm (Euschistus heros) | mortality at 200 ppm [1] | mortality at 200 ppm (Myzus persicae [2]) | mortality at 24 ppm (Myzus persicae [3]) | percent effect (mortality or growth inhibition) at 200 ppm (Plutella xylostella) | percent control (mortality, anti-feedant effect or growth inhibition) at 200 ppm (Spodoptera littoralis [4]) | percent effect (mortality, anti-feeding or growth inhibition) at 12.5 ppm (Spodoptera littoralis [5]) | mortality at 200 ppm (Thrips tabaci) | pest or weed control at 200 ppm (Aedes aegypti) | pest or weed control at 200 ppm (Anopheles stephensi)
